# Measured values published in ChEMBL document CHEMBL1121985, “3'-Hydroxy- and (+/-)-3',11-dihydroxy-delta 9-tetrahydrocannabinol: biologically active metabolites of delta 9-tetrahydrocannabinol” (1982).
# Experiments:
# Canis familiaris [1] = assay: Tested for Maximal behavioral effect(overt behavior) in dogs, activity is expressed as av score at a dose of 0.2 mg/kg; format: functional, Canis lupus familiaris
# Canis familiaris [2] = assay: Tested for Maximal behavioral effect(overt behavior) in dogs, activity is expressed as av score at a dose of 0.4 mg/kg; format: functional, Canis lupus familiaris
# Canis familiaris [3] = assay: Cardiovascular effect for percentage change in heart rate in anesthetized dogs after 1 mg/kg iv dose; format: functional, Canis lupus familiaris
# Canis familiaris [4] = assay: Cardiovascular effect for percentage change in blood pressure in anesthetized dogs after 1 mg/kg iv dose; format: functional, Canis lupus familiaris
# Canis familiaris [5] = assay: Tested for Maximal behavioral effect(overt behavior) in dogs, activity is expressed as av score at a dose of 0.1 mg/kg; format: functional, Canis lupus familiaris
# Mus musculus [6] = assay: Tested for the ability to alter the spontaneous activity in mice at 10.0 mg/kg; format: functional
# Mus musculus [7] = assay: Tested for the ability to alter the spontaneous activity in mice at 2.5 mg/kg; format: functional
# Mus musculus [8] = assay: Tested for the ability to alter the spontaneous activity in mice at 5.0 mg/kg; format: functional
# Mus musculus [9] = assay: Tested for the ability to alter the spontaneous activity in mice at 7.5 mg/kg; format: functional
# Mus musculus [10] = assay: Tested for the ability to change in rectal temperature in mice at 10.0 mg/kg; format: functional
# Mus musculus [11] = assay: Tested for the ability to change in rectal temperature in mice at 2.5 mg/kg; format: functional
# Mus musculus [12] = assay: Tested for the ability to change in rectal temperature in mice at 5.0 mg/kg; format: functional
# Mus musculus [13] = assay: Tested for the ability to change in rectal temperature in mice at 7.5 mg/kg; format: functional
# Canis familiaris [14] = assay: Tested for Maximal behavioral effect(overt behavior) in dogs, activity is expressed as av score at a dose of 0.5 mg/kg; format: functional, Canis lupus familiaris
# Mus musculus [15] = assay: Tested for the ability to alter the spontaneous activity in mice at 10 mg/kg; format: functional
# Mus musculus [16] = assay: Tested for the ability to alter the spontaneous activity in mice at 3 mg/kg; format: functional
# Mus musculus [17] = assay: Tested for the ability to alter the spontaneous activity in mice at 30 mg/kg; format: functional
# Mus musculus [18] = assay: Tested for the ability to alter the spontaneous activity in mice at 6 mg/kg; format: functional
# Mus musculus [19] = assay: Tested for the ability to change in rectal temperature in mice a 3 mg/kg; format: functional
# Mus musculus [20] = assay: Tested for the ability to change in rectal temperature in mice at 10 mg/kg; format: functional
# Mus musculus [21] = assay: Tested for the ability to change in rectal temperature in mice at 30 mg/kg; format: functional
# Mus musculus [22] = assay: Tested for the ability to change in rectal temperature in mice at 6 mg/kg; format: functional
# Canis familiaris [23] = assay: Tested for Maximal behavioral effect(overt behavior) in dogs, activity is expressed as av score at a dose of 0.05 mg/kg; format: functional, Canis lupus familiaris
# Mus musculus [24] = assay: Tested for the ability to alter the spontaneous activity in mice at 0.1 mg/kg; format: functional
# Mus musculus [25] = assay: Tested for the ability to alter the spontaneous activity in mice at 0.3 mg/kg; format: functional
# Mus musculus [26] = assay: Tested for the ability to alter the spontaneous activity in mice at 1 mg/kg; format: functional
# Mus musculus [27] = assay: Tested for the ability to change in rectal temperature in mice at 0.3 mg/kg; format: functional
# Mus musculus [28] = assay: Tested for the ability to change in rectal temperature in mice at 1 mg/kg; format: functional
# Mus musculus [29] = assay: Tested for the ability to change in rectal temperature in mice at 3 mg/kg; format: functional
# Mus musculus [30] = assay: Tested for the ability to change in rectal temperature in mice at 0.1 mg/kg; format: functional
smiles,measurement,setting,value
CCCCCc1cc(O)c2c(c1)OC(C)(C)[C@@H]1CCC(C)=C[C@@H]21 [DRONABINOL],Average score,Canis familiaris [1],3
same,Average score,Canis familiaris [2],4
same,Change,Canis familiaris [3],-39%
same,Change,Canis familiaris [4],-46%
same,Average score,Canis familiaris [5],0
same,Activity,Mus musculus [6],6
same,Activity,Mus musculus [7],59
same,Activity,Mus musculus [8],20
same,Activity,Mus musculus [9],17
same,Change in temparature,Mus musculus [10],-4.2 °C
same,Change in temparature,Mus musculus [11],-2.6 °C
same,Change in temparature,Mus musculus [12],-3.6 °C
same,Change in temparature,Mus musculus [13],-3.8 °C
CCC(O)CCc1cc(O)c2c(c1)OC(C)(C)[C@@H]1CCC(CO)=CC21 (stereo partly drawn),Average score,Canis familiaris [1],1
same,Average score,Canis familiaris [14],3
same,Activity,Mus musculus [15],33
same,Activity,Mus musculus [16],81
same,Activity,Mus musculus [17],26
same,Activity,Mus musculus [18],59
same,Change in temparature,Mus musculus [19],-0.4 °C
same,Change in temparature,Mus musculus [20],-3 °C
same,Change in temparature,Mus musculus [21],-4.3 °C
same,Change in temparature,Mus musculus [22],-0.2 °C
CCC(O)CCc1cc(O)c2c(c1)OC(C)(C)[C@@H]1CCC(C)=CC21 (stereo partly drawn),Average score,Canis familiaris [1],4.5
same,Change,Canis familiaris [3],-12%
same,Average score,Canis familiaris [4],-45%
same,Average score,Canis familiaris [23],1
same,Average score,Canis familiaris [5],2
same,Activity,Mus musculus [24],108
same,Activity,Mus musculus [25],86
same,Activity,Mus musculus [15],7
same,Activity,Mus musculus [26],27
same,Activity,Mus musculus [16],13
same,Change in temparature,Mus musculus [27],-1.3 °C
same,Change in temparature,Mus musculus [28],-2.8 °C
same,Change in temparature,Mus musculus [20],-7.6 °C
same,Change in temparature,Mus musculus [29],-4.1 °C
same,Change in temparature,Mus musculus [30],-0.4 °C
